This note sets out measurements from publication PMC10096180, “Half-Sandwich Type Platinum-Group Metal Complexes of C-Glucosaminyl Azines: Synthesis and Antineoplastic and Antimicrobial Activities” (Molecules, 2023).

The subject of series [1] is A2780 cells. Briefly: SRB binding assay, cytostasis, 48 h treatment. In kind it is cell-based. Particulars: up to 100 μM, ND = not detectable. As to the method: (§1) The complexes described above are intended to replace registered platinum complexes. Platinum complexes constitute the core of the chemotherapy regimen used in ovarian cancer; therefore, we used a cellular model of ovarian cancer, A2780, and primary human dermal fibroblasts as models of non-transformed cells (controls). For the characterization of the complexes, we used an MTT assay after 4 h of treatment for the detection of early toxicity and an SRB assay 48 h after treatment for the detection of cytostasis.
An SRB assay measures protein content of cells in correlation with the cell number in an assay well and can therefore be used to assess cell proliferation or long-term cytostasis. Cells were seeded in 96-well plates the day before the assay. Cells were treated with the compounds for 48 h. Then medium was removed, and cells were fixed with 10% trichloroacetic acid. Fixed cells were washed in distilled water 3 times, followed by staining with SRB (0.4 m/V% dissolved in 1% acetic acid) for 10 min. Stained cells were washed in 1% acetic acid 5 times; acetic acid was removed, and cells were left to dry. Protein-bound SRB was released by adding 100 μL 10 mM Tris base. Plates were measured in a plate photometer (Thermo Scientific Multiscan GO spectrophotometer, Waltham, MA, USA) at 540 nm. On each plate, wells were designed to contain vehicle-treated cells. In calculations, the readings for these wells were considered to be 1, and all readings were expressed relative to these values.
(§2) Statistical analysis was performed using version 8.0.1 of GraphPad Prism. Values were tested for normal distribution using the Shapiro–Wilk normality test. Nonlinear regression was performed using the built-in “[Inhibitor] vs. response—Variable slope (four parameters), least square fit” utility of GraphPad, which yielded IC50 and Hill slope values if the sigmoid curves reached a plateau of inhibition and there was no decrease between two subsequent data points or when inhibition was over 90%. In other cases, the percentage of inhibition was taken for the maximum concentration (100 μM).

The subject of series [2] is vancomycin-resistant Enterococcus (VRE) clinical isolates. Briefly: Broth microdilution MIC, clinical VRE isolates. The conditions noted are these: 24 h, 0.08–40 μM. In kind it is cell-based, E. faecium. As to the method: (§3) We used a set of clinical isolates of S. aureus and E. faecium that were collected at the Medical Center of the University of Debrecen (Hungary) between 1 January 2018. and 31 December 2020. The clinical isolates were identified using a Microflex MALDI-TOF mass spectrometer (Bruker, Billerica, MA, USA). The antibiotic susceptibility of the isolates was tested following the European Committee on Antimicrobial Susceptibility Testing (EUCAST) guidelines, which were valid at the time of collection.
(§4) Microdilution experiments were performed according to the standards of EUCAST [85]. The bacterial isolates to be tested were grown on Mueller–Hinton agar plates. The inoculum density of bacteria was set at 5.0 × 10^5 CFU/mL in microtiter plates in a final volume of 200 μL Mueller–Hinton broth. The tested concentration range was 0.08–40 μM (10 concentrations, twofold serial dilutions), and a drug-free growth control and an inoculum-free negative control were included. The inoculated plates were incubated for 24 h at 37 °C, then visually assessed. Minimum inhibitory concentration (MIC) was defined as the lowest concentration with a 50%≤ inhibitory effect compared to the growth control. All experiments were performed at least twice in duplicate.
A general note: In broth dilution the organism is exposed to a series of concentrations in liquid medium.

Series [3] has as its system methicillin-resistant Staphylococcus aureus (MRSA) clinical isolates. Briefly: Broth microdilution MIC, clinical MRSA isolates. The conditions noted are these: 24 h, 0.08–40 μM. It is filed as cell-based. As to the method:
as §3, §4

For series [4], the system named is Enterococcus faecalis (ATCC29212). Briefly: Broth microdilution MIC, reference strain. Particulars: 24 h, tested range 0.08–40 μM, read-out: MIC E. faecalis ATCC 29,212. In kind it is cell-based. As to the method:
(§5) The reference strains of Staphylococcus aureus (ATCC29213) and Enterococcus faecalis (ATCC29212) were purchased from the ATCC (Manassas, VA, USA).
as §4

Series [5] relates to Staphylococcus aureus (ATCC29213). Briefly: Broth microdilution MIC, reference strain. In kind it is cell-based. Particulars: 0.08–40 μM, read-out: MIC S. aureus ATCC 29213. As to the method: as §5, §4
Series [6] relates to A2780 cells. Briefly: MTT reduction assay, early toxicity, 4 h treatment. It is filed as cell-based. Particulars: inhibition at maximum concentration (100 μM) where no plateau, ND = not detectable. As to the method:
as §1
An MTT reduction assay was measures the activity of mitochondrial complex I and can be used to detect toxicity. The assay was performed in a manner similar to that described in [84]. Briefly, cells were plated in 96-well plates the day before the assay. Cells were treated with the compounds for 4 h; then, MTT was added to a 0.5 mg/mL final concentration, and cells were incubated at 37 °C in a cell incubator for 40–60 min as a function of the cell line being assessed. Culture medium was removed, the reduced MTT dye was dissolved in dimethyl-sulfoxide, and plates were measured in a plate photometer (Thermo Scientific Multiscan GO spectrophotometer, Waltham, MA, USA) at 540 nm. On each plate, wells were designed to contain vehicle-treated cells. In calculations, the readings for these wells were considered to 1, and all readings were expressed relative to these values.
as §2

A short description of series [7]: Distribution coefficient (logD), n-octanol-PBS. It is filed as physicochemical. Particulars: n-octanol-PBS (pH = 7.4) system. As to the method:
The logD values of the newly synthesized complexes were determined according to a procedure described in our previous publications. page 64: Ir-7b +1.17 Rh-7b +1.41 Ru-7c +1.31 Os-7c +1.59 Ir-7c +1.40 Rh-7c +1.13 Ru-7d +1.26 Os-7d +1.42 Ir-7d +1.30 Rh-7d +1.04 Ru-7e +2.22 Os-7e +2.21 Ir-7e +1.39 Rh-7e +1.66 *logD was determined in an n-octanol-PBS (pH = 7.4) system 64 (14 pictures or pasted objects on this page, not shown here)

The mark [8] stands for this setting: Enterococcus, clinical isolate 25,051 VRE, read-out: MIC 25,051 VRE.
Where [9] appears, read: Enterococcus, clinical isolate 25,498 VRE, read-out: MIC 25,498 VRE.
Where [10] appears, read: Enterococcus, clinical isolate 27,085 VRE, read-out: MIC 27,085 VRE.
The mark [11] stands for this setting: Staphylococcus aureus, clinical isolate 20,426 MRSA, read-out: MIC 20,426 MRSA.
The mark [12] stands for this setting: Staphylococcus aureus, clinical isolate 24,035 MRSA, read-out: MIC 24,035 MRSA.
[13] abbreviates: Staphylococcus aureus, clinical isolate 24,268 MRSA, read-out: MIC 24,268 MRSA.
[14] abbreviates: Staphylococcus aureus, clinical isolate 24,272 MRSA, read-out: MIC 24,272 MRSA.
Where [15] appears, read: Staphylococcus aureus, clinical isolate 24,328 MRSA, read-out: MIC 24,328 MRSA.
Where [16] appears, read: Staphylococcus aureus, clinical isolate 24,408 MRSA, read-out: MIC 24,408 MRSA.
Where [17] appears, read: Staphylococcus aureus, ATCC29213, 24 h.
Where [18] appears, read: clinical isolate 25,051 VRE, read-out: MIC 25,051 VRE.
Setting [19] is: clinical isolate 25,498 VRE, read-out: MIC 25,498 VRE.
Setting [20] is: clinical isolate 27,085 VRE, read-out: MIC 27,085 VRE.
Setting [21] is: clinical isolate 20,426 MRSA, read-out: MIC 20,426 MRSA.
Setting [22] is: clinical isolate 24,035 MRSA, read-out: MIC 24,035 MRSA.
Where [23] appears, read: clinical isolate 24,268 MRSA, read-out: MIC 24,268 MRSA.
Setting [24] is: clinical isolate 24,272 MRSA, read-out: MIC 24,272 MRSA.
Where [25] appears, read: clinical isolate 24,328 MRSA, read-out: MIC 24,328 MRSA.
Where [26] appears, read: clinical isolate 24,408 MRSA, read-out: MIC 24,408 MRSA.

Molecules are shown by their SMILES. Read-outs that look alike come from different tables or passages of the source. Bounds are passed on as bounds.

The term MIC denotes the smallest concentration in the dilution series that meets the test's criterion for growth inhibition. The inhibition is the drop in the measured response relative to a control, in per cent. A word on the logD: it is the decadic logarithm of the distribution of all forms, ionised or not, between an organic phase and buffer at a given pH. A high value points to higher lipophilicity.

As for `N[C@@H]1[C@@H](OC(=O)c2ccccc2)[C@H](OC(=O)c2ccccc2)[C@@H](COC(=O)c2ccccc2)O[C@H]1c1ccc2ccccc2n1` [Complex 7e, 2-(2′-Amino-2′-deoxy-3′,4′,6′-tri-O-benzoyl-β-D-glucopyranosyl)quinoline], in the series on A2780 cells [1], the “A2780 SRB Max Inhibition” value is recorded as 45.20%. The MIC in series [2] (setting [8]), in series [2] (setting [9]), in series [2] (setting [10]), in series [3] (setting [11]), in series [3] (setting [12]) and in series [3] (setting [13]) was more than 40 µM each time. The MIC in series [3] (setting [14]), in series [3] (setting [15]), in series [3] (setting [16]), in series [4] (Enterococcus faecalis) and in series [5] (setting [17]) was more than 40 µM each time. Also, in the series on A2780 cells [6] (Homo sapiens, read-out: A2780 MTT Max Inhibition), the inhibition at 100 µM was determined as 13.6%.

`Cc1ccc(C(C)C)cc1.F[P-](F)(F)(F)(F)F.N[C@@H]1[C@@H](OC(=O)c2ccccc2)[C@H](OC(=O)c2ccccc2)[C@@H](COC(=O)c2ccccc2)O[C@H]1c1ccc2ccccc2n1.[Cl][Os+]` [Os-7e]: the “A2780 SRB Max Inhibition” value in the series with A2780 cells [1] came out at 67.50%. Also, the minimal inhibitory concentration (MIC) in series [2] (setting [18]), in series [2] (setting [19]), in series [2] (setting [20]), in series [3] (setting [21]), in series [3] (setting [22]) and in series [3] (setting [23]) was more than 40 µM in each case. The MIC in series [3] (setting [24]), in series [3] (setting [25]), in series [3] (setting [26]), in series [4] and in series [5] (24 h) was more than 40 µM throughout. The logD in series [7] is reported as 2.21. The “A2780 MTT Max Inhibition” value in the series with A2780 cells [6] stood at 27.04%.

For `Cc1c(C)c(C)[c-](C)c1C.F[P-](F)(F)(F)(F)F.N[C@@H]1[C@@H](OC(=O)c2ccccc2)[C@H](OC(=O)c2ccccc2)[C@@H](COC(=O)c2ccccc2)O[C@H]1c1ccc2ccccc2n1.[Cl][Rh+2]` [Rh-7e], in the series with A2780 cells [1], the “A2780 SRB Max Inhibition” value amounted to 67.32%. Moreover, the MIC in series [2] (setting [18]), in series [2] (setting [19]), in series [2] (setting [20]), in series [3] (setting [21]), in series [3] (setting [22]) and in series [3] (setting [23]) was more than 40 µM throughout. Also, the MIC in series [3] (setting [24]), in series [3] (setting [25]), in series [3] (setting [26]), in series [4] and in series [5] (24 h) was more than 40 µM each time. Moreover, the logD in series [7] was determined as 1.66. Also, the “A2780 MTT Max Inhibition” value in the series on A2780 cells [6] is 31.89%.

Consider `N[C@@H]1[C@@H](OCc2ccccc2)[C@H](OCc2ccccc2)[C@@H](COCc2ccccc2)O[C@H]1c1cnccn1` [Complex 3d, 2-(2′-Amino-2′-deoxy-3′,4′,6′-tri-O-benzyl-β-D-glucopyranosyl)pyrazine], for which the MIC in series [2] (setting [8]), in series [2] (setting [9]), in series [2] (setting [10]), in series [3] (setting [11]), in series [3] (setting [12]) and in series [3] (setting [13]) was more than 40 µM each time. Also, the MIC in series [3] (setting [14]), in series [3] (setting [15]), in series [3] (setting [16]), in series [4] (Enterococcus faecalis) and in series [5] (setting [17]) was more than 40 µM throughout. Moreover, the “A2780 MTT Max Inhibition” value with A2780 cells [6] is given as “no activity”.

As to `Cc1ccc(C(C)C)cc1.F[P-](F)(F)(F)(F)F.N[C@@H]1[C@@H](OC(=O)c2ccccc2)[C@H](OC(=O)c2ccccc2)[C@@H](COC(=O)c2ccccc2)O[C@H]1c1ccc2ccccc2n1.[Cl][Ru+]` [Ru-7e], the “A2780 SRB Max Inhibition” value in the series on A2780 cells [1] worked out at 67.50%. The MIC in series [2] (setting [18]), in series [2] (setting [19]), in series [2] (setting [20]), in series [3] (setting [21]), in series [3] (setting [22]) and in series [3] (setting [23]) was more than 40 µM each time. The MIC in series [3] (setting [24]), in series [3] (setting [25]), in series [3] (setting [26]), in series [4] and in series [5] (24 h) was more than 40 µM each time. The same compound returned a logD in series [7] of 2.22. Further, the “A2780 MTT Max Inhibition” value with A2780 cells [6] came to 27.04%.
